# Source: patent US6664411B2, “Heterocyclic compounds and their use in medicine; process for their preparation and pharmaceutical compositions containing them” (Dr. Reddy's Laboratories Limited, priority 1997, dated 2003)
# Assays:
# [1] = system: Swiss albino mice and Guinea pigs; test: Plasma triglyceride and total cholesterol lowering activity in Swiss albino mice and Guinea pigs; type: in vivo; conditions: 3 mg/kg orally for 6 days; species of the table not stated (Swiss albino mice or Guinea pigs)
# Method: Male Swiss albino mice (SAM) and male Guinea pigs were obtained from NIN and housed in DRF animal house. All these animals were maintained under 12 hour light and dark cycle at 25±1° C. Animals were given standard laboratory chow (NIN, Hyderabad, India) and water, ad libitum. SAM of 20-25 g body weight range and Guinea pigs of 500-700 g body weight range were used (Oliver, P., Plancke, M. O., Marzin, D., Clavey, V., Sauzieres, J and Fruchart, J. C. Effects of fenofibrate, gemfibrozil and nicotinic acid on plasma lipoprotein levels in normal and hyperlipidemic mice. Atherosclerosis. 1988. 70:107-114).
# The test compounds were administered orally to Swiss albino mice at 0.3 to 30 mg/kg/day dose for 6 days. Control mice were treated with vehicle (0.25% Carboxymethylcellulose; dose 10 ml/kg). The test compounds were administered orally to Guinea pigs at 0.3 to 30 mg/kg/day dose for 6 days. Control animals were treated with vehicle (0.25% Carboxymethylcellulose; dose 5 ml/kg).
# The blood samples were collected in fed state 1 hour after drug administration on 0 and 6 day of treatment. The blood was collected from the retro-orbital sinus through heparinised capillary in EDTA containing tubes. After centrifugation, plasma sample was separated for triglyceride and total cholesterol (Wieland, O. Methods of Enzymatic analysis. Bergermeyer, H. O., Ed., 1963. 211-214; Trinder, P. Ann. Clin. Biochem. 1969. 6:24-27). Measurement of plasma triglyceride, total cholesterol and HDL were done using commercial kits (Dr. Reddy's Diagnostic Division, Hyderabad, India).
# (§1) 1. Percent reduction in Blood sugar/triglycerides/total cholesterol were calculated according to the formula: [formula]
# [2] = system: C57BL/KsJ-db/db mice; test: Efficacy in genetic models: blood sugar and triglyceride lowering in db/db mice; type: in vivo; conditions: 3 mg/kg oral gavage daily for 6 days
# Excerpt: Mutation in colonies of laboratory animals and different sensitivities to dietary regimens have made the development of animal models with non-insulin dependent diabetes and hyperlipidemia associated with obesity and insulin resistance possible. Genetic models such as db/db and ob/ob (Diabetes, (1982) 31(1):1-6) mice and zucker fa/fa rats have been developed by the various laboratories for understanding the pathophysiology of disease and testing the efficacy of new antidiabetic compounds (Diabetes, (1983) 32:830-838; Annu. Rep. Sankyo Res. Lab. (1994). 46:1-57). The homozygous animals, C57 BL/KsJ-db/db mice developed by Jackson Laboratory, US, are obese, hyperglycemic, hyperinsulinemic and insulin resistant (J. Clin. Invest., (1990) 85:962-967), whereas heterozygous are lean and normoglycemic. In db/db model, mouse progressively develops insulinopenia with age, a feature commonly observed in late stages of human type II diabetes when blood sugar levels are insufficiently controlled. The state of pancreas and its course vary according to the models. Since this model resembles that of type II diabetes mellitus, the compounds of the present invention were tested for blood sugar and triglycerides lowering activities.
# Male C57BL/KsJ-db/db mice of 8 to 14 weeks age, having body weight range of 35 to 60 grams, bred at Dr. Reddy's Research Foundation (DRF) animal house, were used in the experiment. The mice were provided with standard feed (National Institute of Nutrition (NIN), Hyderabad, India) and acidified water, ad libitum. The animals having more than 350 mg/dl blood sugar were used for testing. The number of animals in each group was 4.
# Test compounds were suspended on 0.25% carboxymethyl cellulose and administered to test group at a dose of 0.001 mg to 30 mg/kg through oral gavage daily for 6 days. The control group received vehicle (dose 10 ml/kg). On 6th day the blood samples were collected one hour after administration of test compounds/vehicle for assessing the biological activity.
# The random blood sugar and triglyceride levels were measured by collecting blood (100 μl) through orbital sinus, using heparinised capillary in tubes containing EDTA which was centrifuged to obtain plasma. The plasma glucose and triglyceride levels were measured spectrometrically, by glucose oxidase and glycerol-3-PO4 oxidase/peroxidase enzyme (Dr. Reddy's Lab. Diagnostic Division Kits, Hyderabad, India) methods respectively.
# The blood sugar and triglycerides lowering activities of the test compound was calculated according to the formula described below.
# as §1
# [3] = target: T1, hPPARα (Homo sapiens, UniProt Q07869); test: Determination of hPPARα activity (GAL4 fusion luciferase reporter, HEK-293 cells); type: cell-based; conditions: Concentration 50 μM
# T1 construct: expressed in transfected cells; host or cells: HEK-293
# T1 sequence (Q07869 239-466 limits assumed): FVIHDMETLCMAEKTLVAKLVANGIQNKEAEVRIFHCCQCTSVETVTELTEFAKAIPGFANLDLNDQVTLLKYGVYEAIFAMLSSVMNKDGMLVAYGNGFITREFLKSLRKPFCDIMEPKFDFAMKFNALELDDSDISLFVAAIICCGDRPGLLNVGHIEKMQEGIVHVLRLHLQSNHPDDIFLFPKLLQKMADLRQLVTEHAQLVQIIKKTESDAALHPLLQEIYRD
# Method: Ligand binding domain of hPPARα was fused to DNA binding domain of Yeast transcription factor GAL4 in eucaryotic expression vector. Using superfect (Qiagen, Germany) as transfecting reagent HEK-293 cells were transfected with this plasmid and a reporter plasmid harboring the luciferase gene driven by a GALA specific promoter. Compound was added at different concentrations after 42 hrs of transfection and incubated overnight. Luciferase activity as a function of compound binding/activation capacity of PPARα was measured using Packard Luclite kit (Packard, USA) in Top Count (Ivan Sadowski, Brendan Bell, Peter Broag and Melvyn Hollis. Gene. 1992. 118: 137-141; Superfect Transfection Reagent Handbook. February, 1997. Qiagen, Germany).
# [4] = target: T2, hPPARγ1 (Homo sapiens, UniProt P37231); test: Determination of hPPARγ activity (GAL4 fusion luciferase reporter, HEK-293 cells); type: cell-based; conditions: Concentration 1 μM
# T2 construct: expressed in transfected cells; host or cells: HEK-293
# T2 sequence (P37231 238-503 limits assumed): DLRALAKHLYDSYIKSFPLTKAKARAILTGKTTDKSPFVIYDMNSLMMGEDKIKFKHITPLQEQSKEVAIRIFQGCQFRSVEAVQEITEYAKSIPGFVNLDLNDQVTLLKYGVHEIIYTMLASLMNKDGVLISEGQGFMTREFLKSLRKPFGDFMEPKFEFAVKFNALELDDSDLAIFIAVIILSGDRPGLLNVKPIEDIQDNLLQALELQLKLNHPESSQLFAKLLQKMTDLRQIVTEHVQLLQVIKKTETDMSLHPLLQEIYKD
# Method: Ligand binding domain of hPPARγ1 was fused to DNA binding domain of Yeast transcription factor GAL4 in eucaryotic expression vector. Using lipofectamine (Gibco BRL, USA) as transfecting reagent HEK-293 cells were transfected with this plasmid and a reporter plasmid harboring the luciferase gene driven by a GAL4 specific promoter. Compound was added at 1 μM concentration after 48 hrs of transfection and incubated overnight. Luciferase activity as a function of drug binding/activation capacity of PPARγ was measured using Packard Luclite kit (Packard, USA) in Packard Top Count (Ivan Sadowski, Brendan Bell, Peter Broag and Melvyn Hollis. Gene. 1992. 118:137-141; Guide to Eukaryotic Transfections with Cationic Lipid Reagents. Life Technologies, GIBCO BRL, USA).
# [5] = system: hypercholesterolemic Sprague Dawley rats; test: Cholesterol lowering activity in hypercholesterolemic rat models; type: in vivo; conditions: for LDL↓ (%): LDL calculated; for VLDL↓ (%): VLDL calculated
# Method: Male Sprague Dawley rats (NIN stock) were bred in DRF animal house. Animals were maintained under 12 hour light and dark cycle at 25±1° C. Rats of 180-200 gram body weight range were used for the experiment. Animals were made hypercholesterolemic by feeding 2% cholesterol and 1% sodium cholate mixed with standard laboratory chow [National Institute of Nutrition (NIN), Hyderabad, India] for 6 days. Throughout the experimental period the animals were maintained on the same diet (Petit, D., Bonnefis, M. T., Rey, C and Infante, R. Effects of ciprofibrate on liver lipids and lipoprotein synthesis in normo- and hyperlipidemic rats. Atherosclerosis. 1988. 74: 215-225).
# The test compounds were administered orally at a dose 0.1 to 30 mg/kg/day for 3 days. Control group was treated with vehicle alone (0.25% Carboxymethylcellulose; dose 10 ml/kg).
# The blood samples were collected in fed state 1 hour after drug administration on 0 and 3 day of compound treatment. The blood was collected from the retro-orbital sinus through heparinised capillary in EDTA containing tubes. After centrifugation, plasma sample was separated for total cholesterol, HDL and triglyceride estimations. Measurement of plasma triglyceride, total cholesterol and HDL were done using commercial kits (Dr. Reddy's Laboratory, Diagnostic Division, India). LDL and VLDL cholesterol were calculated from the data obtained for total cholesterol, HDL and triglyceride. The reduction of various parameters examined are calculated according to the formula.
# as §1
# 2. LDL and VLDL cholesterol levels were calculated according to the formula: [formula]
# VLDL cholesterol in mg/dl=[Total cholesterol−HDL cholesterol−LDL cholesterol] mg/dl
structure (smiles),measurement,setting,value
"CCOC(Cc1ccc(OCCN2COc3ccccc3C2=O)cc1)C(=O)NC(CO)c1ccccc1 [Example 7a, [2R, N(1S)] 2-Ethoxy-3-[4-[2-[4-oxo-3,4-dihydro-1,3-benzoxazin-3-yl]ethoxy]phenyl]-N-(2-hydroxy-1-phenylethyl)propanamide]",melting point,,64 to 68 °C
"CCOC(Cc1ccc(OCC2Nc3ccccc3C(=O)N2C)cc1)C(=O)OC (racemic) [Example 19, (±)-Methyl 2-ethoxy-3-[4-[[3-methyl-4-oxo-1,2,3,4-tetrahydro-2-quinazolinyl]methoxy]phenyl]propanoate]",Triglyceride (%)↓,[1],51%
same,Reduction in Blood Glucose Level (%),[2],31%
same,Triglyceride Lowering (%),[2],62%
"CCOC(Cc1ccc(OCC2NC(=O)c3ccccc3N2)cc1)C(=O)O (racemic) [Example 16, (±)-2-Ethoxy-3-[4-[[4-oxo-1,2,3,4-tetrahydro-2-quinazolinyl]methoxy]phenyl]propanoic Acid]",Reduction in Blood Glucose Level (%),[2],18%
same,Triglyceride Lowering (%),[2],13%
"CCOC(Cc1ccc(OCCN2COc3ccccc3C2=O)cc1)C(=O)O (racemic) [Example 3, (±) 2-Ethoxy-3-[4-[2-[4-oxo-3,4-dihydro-1,3-benzoxazin-3-yl]ethoxy]phenyl]propanoic Acid]",PPARα,[3],7
same,PPARγ,[4],11
same,HDL↑ (%),[5]; 0.3 mg/kg orally for 3 days,110%
same,Total Cholesterol (%)↓,[5]; 0.3 mg/kg orally for 3 days,64%
same,Triglyceride (%)↓,[5]; 0.3 mg/kg orally for 3 days,62%
same,LDL↓ (%),[5]; 0.3 mg/kg orally for 3 days,74%
same,VLDL↓ (%),[5]; 0.3 mg/kg orally for 3 days,50%
"CCOC(Cc1ccc(OCC2NC(=O)c3cc(Cl)ccc3N2)cc1)C(=O)O (racemic) [Example 18, (±)-2-Ethoxy-3-[4-[[6-chloro-4-oxo-1,2,3,4-tetrahydro-2-quinazolinyl]methoxy]phenyl]propanoic Acid]",Triglyceride (%)↓,[1],63%
CCOC(Cc1ccc(OCCN2COc3ccccc3C2=O)cc1)C(=O)NC(CO)c1ccccc1 (stereo not shown) [Example 7],Triglyceride (%)↓,[1],61%
"CCOC(Cc1ccc(OCCN2COc3ccccc3C2=O)cc1)C(=O)[O-].[Na+] (racemic) [Example 4, (±)-Sodium 2-ethoxy-3-[4-[2-[4-oxo-3,4-dihydro-1,3-benzoxazin-3-yl]ethoxy]phenyl]propanoate]",HDL↑ (%),[5]; 3 mg/kg orally for 3 days,256%
same,Total Cholesterol (%)↓,[5]; 3 mg/kg orally for 3 days,64%
same,Triglyceride (%)↓,[5]; 3 mg/kg orally for 3 days,61%
same,LDL↓ (%),[5]; 3 mg/kg orally for 3 days,76%
same,VLDL↓ (%),[5]; 3 mg/kg orally for 3 days,67%
"CCOC(Cc1ccc(OCC2NC(=O)c3ccccc3O2)cc1)C(=O)O (racemic) [Example 14, (±)-2-Ethoxy-3-[4-[[4-oxo-3,4-dihydro 1,3-benzoxazin-2-yl]methoxy]phenyl]propanoic Acid]",Reduction in Blood Glucose Level (%),[2],55%
same,Triglyceride Lowering (%),[2],46%
